# How the values were obtained:
# [1] = test system: telemetered rat (transitions between SLEEP and WAKE states); format: in vivo, Male Sprague–Dawley rats
# [2] = Pharmacokinetic model: typical-rat PK from satellite PK experiments, oral dosing; format: in vivo, rats; settings: Sprague-Dawley, plasma
compound,measurement,setting,value
"COC(=O)C(c1ccccc1)C1CCCCN1 (centres unmarked) [methylphenidate, Methylphenidate]",EC50,"[1]; Rattus norvegicus, intensity v (SLEEP to WAKE, clearance of sleep), plasma concentration, mean (95% confidence limits)",288 nM
same,"Teq,drug (equilibrium half-life plasma to effect compartment)","[1]; delay on intensity u (acquisition of sleep), mean (95% confidence limits)","24 (17, 40) min"
same,overall effect on sleep/wakefulness compared to placebo,"[1]; rats, Figs. 4 and 6",tend to promote wakefulness
same,"relative potency in inducing sleep fragmentation, methylphenidate versus NCE","[1]; rats, from estimated maximum effects",fivefold more potent
same,effect on the transitions between sleep states (intensities),"[1]; rats, sign of Emax values, Fig. 2",inhibit the transitions from one sleep status to another
same,Cmax,[2]; 3 mg,44 nM
same,Tmax,[2]; 3 mg,12 s
same,Cmax,[2]; 10 mg,146 nM
same,Tmax,[2]; 10 mg,12 s
same,Cmax,[2]; 30 mg,438 nM
same,Tmax,[2]; 30 mg,12 s
